In one test the test system is V. cholerae. Nature of the test: CellROX ROS production, single-cell imaging. Particulars: 100 nM, 2.5 μM CellROX. It is filed as cell-based, Vibrio cholerae. From the text:
The assortment of E. coli genes that were differentially expressed after peptide treatment led us to suspect that B22a induced oxidative stress. Oxidative stress is often transient and challenging to detect due to a suite of enzymes in bacterial cells that can rapidly reduce oxidative species. We monitored the real-time accumulation of ROS in single cells of V. cholerae in the presence of CellROX, a cell-permeable redox dye that reacts with O2^– and ^·OH ([30]). CellROX is nonfluorescent in the reduced state, but upon oxidation, it binds double-stranded DNA and fluoresces strongly. Images were captured at 15-s intervals over 40 min, twice the doubling time of V. cholerae under these conditions. […] The number of fluorescent cells increased following treatment with 25, 50, or 100 nM B22 or B22a (Fig. S4), and a fluorescence burst due to the oxidation of CellROX was observed within 15 s of B22 treatment (Fig. 7A, bottom). The signal intensity peaked over the next 30 s and then dissipated after about 1 min. The loss in fluorescence intensity was followed by an abrupt shortening in cell length, a dramatic decrease in cell contrast, and bleb formation roughly 45 s later.

The test system of another test is P. aeruginosa biofilms. As to the kind of experiment: Established biofilm in flow cell, LIVE/DEAD staining. The conditions noted are these: 100 nM.
A further test deals with E. coli. As to the kind of experiment: Single-cell division time, time-lapse phase-contrast microscopy. It is filed as cell-based, Escherichia coli. Particulars: 30 nM, first three generations. The protocol:
To confirm that sublethal levels of cathelicidins affected the growth of Gram-negative bacteria, the division of single cells of E. coli and E. cloacae was monitored. Cells were seeded into microfluidic chambers and grown under continuous flow, and time-lapse phase-contrast microscopy was used to record the cell division time in the presence or absence of B22a.
Imaging of individual cells was conducted using the CellAsic microfluidic perfusion system (ONIX) with integrated temperature controller and B04A bacterial microfluidic plates (EMD Millipore, Billerica, MA). The CellAsic ONIX FG software (v 5.0.2.0) was used to control flow rate and deliver fresh medium with or without antimicrobial peptide (AMP). The chambers were loaded by perfusion of 50 μl of a 10^6 cells/ml bacterial suspension at 2 lb/in^2 for 15 s to prime the cells followed by 4 lb/in^2 for 15 s to trap the cells. The chamber was then rinsed at 1 lb/in^2 for 30 s followed by 5 lb/in^2 for 5 min. To quickly switch solutions, medium was perfused at 10 lb/in^2 for 10 s, and then flow was reduced to 2 lb/in^2 for the remainder of the imaging.

The next test deals with V. cholerae biofilms. Nature of the test: Established biofilm in flow cell, LIVE/DEAD staining.

Ends that are not written are not given here.

As for FRKKLKKLFKKLSPVIPLLKLG [B22], in the test on V. cholerae, the “Time to fluorescence burst due to oxidation of CellROX” value is given as at most 15 s. Besides, in the test on P. aeruginosa biofilms (4-h period, continuous flow), the “Drop in biofilm biomass” value is on record as 50%. Also, the “Cell death in biofilm (spike)” value in the test on P. aeruginosa biofilms (after 1 h) was over 50.

FRKKLKKLFKKLSPVIPLLKLG-NH2 [B22a]: the Cell division time entry in the test on E. coli is “increased twofold”. Further, the Overall biofilm biomass result in the test on V. cholerae biofilms is “decreased the overall biomass by half”. Moreover, in the test with V. cholerae biofilms (at 6 h), the “Cell death in biofilm” value amounted to 50%.
